From the NIST ThermoML archive (doi:10.1016/j.jct.2014.07.005)
± gives the expanded uncertainty stated by the source.

Columns and labels:
[1] = mn = molality of the nth substance listed, in mol/kg; settings: 100 kPa, Liquid; for viscosity: Capillary tube (Ostwald / Ubbelohde) method; for mass density: Vibrating tube method
[2] = 100 kPa, Liquid, Capillary tube (Ostwald / Ubbelohde) method

CCCCCCCCn1cc[n+](C)c1.[Br-] [1-methyl-3-octylimidazolium bromide] + O
[1]
Settings | mass density, m1 = 0.0035 [kg/m3] | mass density, m1 = 0.0111 [kg/m3] | mass density, m1 = 0.0185 [kg/m3] | viscosity, m1 = 0.0035 [mPa·s] | viscosity, m1 = 0.0111 [mPa·s] | viscosity, m1 = 0.0185 [mPa·s]
288.15 K | 999.275 ± 0.12 | 999.611 ± 0.12 | 999.913 ± 0.11 | 1.146 ± 0.024 | 1.151 ± 0.024 | 1.154 ± 0.024
293.15 K | 998.364 ± 0.12 | 998.697 ± 0.11 | 998.983 ± 0.11 | 1.006 ± 0.021 | 1.013 ± 0.021 | 1.021 ± 0.021
298.15 K | 997.197 ± 0.12 | 997.499 ± 0.11 | 997.781 ± 0.11 | 0.895 ± 0.019 | 0.9 ± 0.019 | 0.904 ± 0.019
303.15 K | 995.792 ± 0.12 | 996.09 ± 0.11 | 996.32 ± 0.11 | 0.8 ± 0.017 | 0.805 ± 0.017 | 0.807 ± 0.017
308.15 K | 994.141 ± 0.11 | 994.373 ± 0.11 | 994.59 ± 0.11 | 0.721 ± 0.015 | 0.723 ± 0.015 | 0.728 ± 0.015
313.15 K | 992.331 ± 0.11 | 992.622 ± 0.11 | 992.876 ± 0.11 | 0.655 ± 0.014 | 0.659 ± 0.014 | 0.66 ± 0.014

O [water]
[2]
Settings | viscosity [mPa·s]
288.15 K | 1.139 ± 0.024
293.15 K | 1.002 ± 0.021
298.15 K | 0.89 ± 0.019
303.15 K | 0.798 ± 0.017
308.15 K | 0.719 ± 0.015
313.15 K | 0.653 ± 0.014

O [water] + CCCCCCCCn1cc[n+](C)c1.[Br-]
[1], m2 = 0
Settings | viscosity [mPa·s]
288.15 K | 1.139 ± 0.024
293.15 K | 1.002 ± 0.021
298.15 K | 0.89 ± 0.019
303.15 K | 0.798 ± 0.017
308.15 K | 0.719 ± 0.015
313.15 K | 0.653 ± 0.014
